Earlier results, collected in patent publication US4127536A, “Novel tricosapeptides, intermediates therefor and pharmaceutical compositions and methods employing said tricosapeptides” (priority 1977, dated 1978).

Experiments:
[1] = test system: partially purified brain opiate receptor sites; conditions: natural peptide
rat = conditions: injected directly into the brain of the rat

H-Tyr-Gly-Gly-Phe-Met-OH [methionine enkephalin]
binding to partially purified brain opiate receptor sites [1]: binds stereo-specifically | analgesic activity (rat): only weak analgesic agent of short duration
